This is an account of results in PubChem BioAssay AID1259407 (Chemical Carcinogenesis Research Information System (CCRIS), 2018).

This series has as its system CCRIS mutagenicity, Ames/micronucleus/aberration tests. Nature of the series: CCRIS mutagenicity studies.
Where [1] appears, read: Test System: AMES SALMONELLA TYPHIMURIUM, Strain/Indicator: TA98, Metabolic Activation: NONE, Method: PREINCUBATION
Setting [2] is: Test System: AMES SALMONELLA TYPHIMURIUM, Strain/Indicator: TA98, Metabolic Activation: RAT, LIVER, S-9, AROCLOR 1254, Method: STANDARD PLATE.
Where [3] appears, read: Test System: AMES SALMONELLA TYPHIMURIUM, Strain/Indicator: TA100, Metabolic Activation: RAT, LIVER, S-9, AROCLOR 1254, Method: STANDARD PLATE.

SMILES strings stand for the structures. Calls of active or inactive are those of the source. No rule for the calls is given here.

For `Nc1ccc(Cl)cc1N`, the mutagenic call (End Point: IN VITRO CHROMOSOMAL ABERRATIONS, Test System: CHL CELLS, Metabolic Activation: NONE) was “active; positive (structural changes)”; the mutagenic call (End Point: IN VITRO CHROMOSOMAL ABERRATIONS, Test System: CHL CELLS, Metabolic Activation: RAT, LIVER, S-9, SODIUM PHENOBARBITAL AND 5,6-BENZOFLAVONE) is “active; positive (structural changes)”; the mutagenic call (End Point: IN VITRO CHROMOSOMAL ABERRATIONS, Test System: CHO-LB CELLS, Metabolic Activation: NONE) was “active; positive”; the mutagenic call (End Point: IN VITRO CHROMOSOMAL ABERRATIONS, Test System: CHO-LB CELLS, Metabolic Activation: RAT, LIVER, S-9, AROCLOR 1254) is “inactive; negative”; the mutagenic call (End Point: IN VIVO MICRONUCLEUS, Test System: HEPATOCYTES, Species: RAT, Strain/Sex: FISHER 344 OR SD/MALE, Route: ORAL OR IP) was “inactive; negative”; the mutagenic call (End Point: IN VIVO MICRONUCLEUS, Test System: PERIPHERAL BLOOD RETICULOCYTES, Species: RAT, Strain/Sex: FISHER 344 OR SD/MALE, Route: ORAL OR IP) was “inactive; negative”. Besides, the mutagenic call is, setting by setting: (Test System: AMES SALMONELLA TYPHIMURIUM, Strain/Indicator: TA97, Metabolic Activation: HAMSTER, LIVER, S-9, AROCLOR 1254 (10%), Method: PREINCUBATION) “active; positive”; (Test System: AMES SALMONELLA TYPHIMURIUM, Strain/Indicator: TA97, Metabolic Activation: NONE, Method: PREINCUBATION) “inactive; negative”; (Test System: AMES SALMONELLA TYPHIMURIUM, Strain/Indicator: TA97, Metabolic Activation: RAT, LIVER, S-9, AROCLOR 1254 (10%), Method: PREINCUBATION) “active; positive”; (Test System: AMES SALMONELLA TYPHIMURIUM, Strain/Indicator: TA98, Metabolic Activation: HAMSTER, LIVER, S-9, AROCLOR 1254 (10%), Method: PREINCUBATION) “active; positive”; under setting [1], “inactive; negative”; (Test System: AMES SALMONELLA TYPHIMURIUM, Strain/Indicator: TA98, Metabolic Activation: RAT, LIVER, S-9, AROCLOR 1254 (10%), Method: PREINCUBATION) “active; positive”. For the same molecule, the mutagenic call reads like this: (Test System: AMES SALMONELLA TYPHIMURIUM, Strain/Indicator: TA98, Metabolic Activation: RAT, LIVER, S-9, PCB, Method: PREINCUBATION) “active; positive”; (Test System: AMES SALMONELLA TYPHIMURIUM, Strain/Indicator: TA100, Metabolic Activation: HAMSTER, LIVER, S-9, AROCLOR 1254 (10%), Method: PREINCUBATION) “active; positive”; (Test System: AMES SALMONELLA TYPHIMURIUM, Strain/Indicator: TA100, Metabolic Activation: NONE, Method: PREINCUBATION) “inactive; negative”; (Test System: AMES SALMONELLA TYPHIMURIUM, Strain/Indicator: TA100, Metabolic Activation: RAT, LIVER, S-9, AROCLOR 1254 (10%), Method: PREINCUBATION) “active; positive”; (Test System: AMES SALMONELLA TYPHIMURIUM, Strain/Indicator: TA100, Metabolic Activation: RAT, LIVER, S-9, PCB, Method: PREINCUBATION) “active; positive”; (Test System: AMES SALMONELLA TYPHIMURIUM, Strain/Indicator: TA1535, Metabolic Activation: HAMSTER, LIVER, S-9, AROCLOR 1254 (10%), Method: PREINCUBATION) “inactive; negative”. In addition, the mutagenic call reads like this: (Test System: AMES SALMONELLA TYPHIMURIUM, Strain/Indicator: TA1535, Metabolic Activation: NONE, Method: PREINCUBATION) “inactive; negative”; (Test System: AMES SALMONELLA TYPHIMURIUM, Strain/Indicator: TA1535, Metabolic Activation: RAT, LIVER, S-9, AROCLOR 1254 (10%), Method: PREINCUBATION) “inactive; negative”; (Test System: E. COLI, Strain/Indicator: WP2 UVRA, Metabolic Activation: HAMSTER, LIVER, S-9, AROCLOR 1254, Method: STANDARD PLATE) “inactive; negative”; (Test System: E. COLI, Strain/Indicator: WP2 UVRA, Metabolic Activation: MOUSE, LIVER, S-9, AROCLOR 1254, Method: STANDARD PLATE) “inactive; negative”; (Test System: E. COLI, Strain/Indicator: WP2 UVRA, Metabolic Activation: MOUSE, LIVER, S-9, Method: STANDARD PLATE) “inactive; negative”; (Test System: E. COLI, Strain/Indicator: WP2 UVRA, Metabolic Activation: NONE, Method: STANDARD PLATE) “inactive; negative”. Also, the mutagenic call was “inactive; negative” (Test System: E. COLI, Strain/Indicator: WP2 UVRA, Metabolic Activation: RAT, LIVER, S-9, Method: STANDARD PLATE) and “active; positive” (Test System: UDS RODENT HEPATOCYTES, Strain/Indicator: THY INCORP (NON-S-PHASE), Metabolic Activation: NONE, Method: AUTORADIOGRAPHY).
In the case of `CSCC[C@H](NC(=O)COc1ccc(Cl)cc1Cl)C(=O)O`, the mutagenic call was “inactive; negative” (Test System: AMES SALMONELLA TYPHIMURIUM, Strain/Indicator: TA97, Metabolic Activation: RAT, LIVER, S-9, AROCLOR 1254, Method: STANDARD PLATE); “inactive; negative” (Test System: AMES SALMONELLA TYPHIMURIUM, Strain/Indicator: TA97, Metabolic Activation: WOODCHUCK, LIVER, S-9, 3-METHYLCHOLANTHRENE, Method: STANDARD PLATE); “inactive; negative” under setting [2]; “inactive; negative” (Test System: AMES SALMONELLA TYPHIMURIUM, Strain/Indicator: TA98, Metabolic Activation: WOODCHUCK, LIVER, S-9, 3-METHYLCHOLANTHRENE, Method: STANDARD PLATE); “inactive; negative” under setting [3]; “inactive; negative” (Test System: AMES SALMONELLA TYPHIMURIUM, Strain/Indicator: TA100, Metabolic Activation: WOODCHUCK, LIVER, S-9, 3-METHYLCHOLANTHRENE, Method: STANDARD PLATE). The mutagenic call (Test System: AMES SALMONELLA TYPHIMURIUM, Strain/Indicator: TA1535, Metabolic Activation: RAT, LIVER, S-9, AROCLOR 1254, Method: STANDARD PLATE) is “inactive; negative”; the mutagenic call (Test System: AMES SALMONELLA TYPHIMURIUM, Strain/Indicator: TA1535, Metabolic Activation: WOODCHUCK, LIVER, S-9, 3-METHYLCHOLANTHRENE, Method: STANDARD PLATE) was “inactive; negative”; the mutagenic call (Test System: AMES SALMONELLA TYPHIMURIUM, Strain/Indicator: TA1538, Metabolic Activation: RAT, LIVER, S-9, AROCLOR 1254, Method: STANDARD PLATE) was “inactive; negative”; the mutagenic call (Test System: AMES SALMONELLA TYPHIMURIUM, Strain/Indicator: TA1538, Metabolic Activation: WOODCHUCK, LIVER, S-9, 3-METHYLCHOLANTHRENE, Method: STANDARD PLATE) is “inactive; negative”.
With `Clc1c2ccccc2cc2ccccc12`, the mutagenic call was “active; positive” under setting [2] and “active; positive” under setting [3].
`CCc1cccc(CC)c1NC(C)=O`: the mutagenic call was “inactive; negative” under setting [1] and “inactive; negative” (Test System: AMES SALMONELLA TYPHIMURIUM, Strain/Indicator: TA98, Metabolic Activation: RAT, LIVER, MICROSOMES, PHENOBARBITAL, Method: PREINCUBATION).
On to `CC(C)(Oc1ccc(C2CC2(Cl)Cl)cc1)C(=O)O` (centres undefined), for which the mutagenic call was “inactive; negative” (Test System: AMES SALMONELLA TYPHIMURIUM, Strain/Indicator: TA98, Metabolic Activation: NONE); “inactive; negative” (Test System: AMES SALMONELLA TYPHIMURIUM, Strain/Indicator: TA98, Metabolic Activation: RAT, LIVER, S-9, AROCLOR 1254); “inactive; negative” (Test System: AMES SALMONELLA TYPHIMURIUM, Strain/Indicator: TA102, Metabolic Activation: NONE); “inactive; negative” (Test System: AMES SALMONELLA TYPHIMURIUM, Strain/Indicator: TA102, Metabolic Activation: RAT, LIVER, S-9, AROCLOR 1254); “inactive; negative” (Test System: AMES SALMONELLA TYPHIMURIUM, Strain/Indicator: TA104, Metabolic Activation: NONE); “inactive; negative” (Test System: AMES SALMONELLA TYPHIMURIUM, Strain/Indicator: TA104, Metabolic Activation: RAT, LIVER, S-9, AROCLOR 1254). The mutagenic call was “inactive; negative” (Test System: UDS RAT HEPATOCYTES, Strain/Indicator: BROMODEOXYURIDINE INCORP, Metabolic Activation: NONE, Method: FLOW CYTOMETRIC ANALYSIS); “inactive; negative” (Test System: UDS RAT HEPATOCYTES, Strain/Indicator: THY INCORP, Metabolic Activation: NONE, Method: AUTORADIOGRAPHY); “inactive; negative” (Test System: UDS RAT HEPATOCYTES, Strain/Indicator: THY INCORP, Metabolic Activation: NONE, Method: LIQUID SCINTILLATION COUNTING).
